# Assay results published in PubChem BioAssay AID2060623 (Molecular Pharmacology Branch, DTP, NCI, 2025).
# Test system: 227483-062-R1-J1-PDC complex spheroids with HUVEC/MSC, viability
# Test: Anticancer human tumor 227483-062-R1-J1-PDC patient-derived pancreatic carcinoma cell line growth inhibition [CLK]
# Details: for IC50: curve of first compound; for viability, T/C: stronger effect = lower value
# Excerpt: A high-throughput screen of multi-cell type tumor spheroids was designed to identify active combinations of […] and targeted small molecules. Complex spheroids include a stromal component modeled by human endothelial cells (HUVEC) and fibroblasts modeled by human mesenchymal stem cells (MSCs). The concentration ranges selected for each drug and investigational agent were based upon clinically achievable concentrations if the clinical Cmax of the agent was known.
# Compounds. The drugs and investigational agents: cirtuvivint (SM08502; NSC835563), CC-671 (NSC850746), vemurafenib (NSC761431), tapotoclax (NSC804041), sotorasib (NSC818433), adagrasib (NSC831453), MRTX-1133 (NSC836407), BAY2416964 (NSC825713), copanlisib (NSC816437), inavolisib (NSC800729), abemaciclib (NSC768073), osimertinib (NSC779217), entinostat (NSC756642), eltanexor (KPT-8602, NSC794443), venetoclax (NSC766270), ceralasertib (NSC777638), bortezomib (NSC756655), olaparib (NSC753686), talazoparib (NSC767125), alisertib (NSC759677), peposertib (NSC802822), gemcitabine (NSC613327), 5-fluorouracil (NSC19893), SN-38 (NSC673596), oxaliplatin (NSC266046), paclitaxel (NSC125973), and doxorubicin (NSC123127), were obtained from the National Cancer Institute (NCI) Developmental Therapeutics Program Chemical Repository. The FDA-approved anticancer drug set is available from the Developmental Therapeutics Program at https://dtp.cancer.gov/organization/dscb/obtaining/available plates.htm. […] The stock solutions were prepared in dimethyl sulfoxide (DMSO, Sigma-Aldrich, St. Louis, MO, cat. D2650), except for the platinum complexes which were prepared in saline (Quality Biological, Gaithersburg, MD, cat. 114-055-101), at 800-fold the tested concentration and stored at -70 degrees C prior to their use. All drugs and investigational agents were tested over a range starting from a high concentration at or near the clinical Cmax and decreasing in half-log increments. If the clinical Cmax for an agent had not been determined, the highest concentration tested was 10 microM.
# Cell Culture. All cells were maintained in an incubator at 37 degrees C and 5% CO2 with 95% humidity. The PDC lines were cultured according to standard operating procedures established by the NCI PDMR. Briefly, all PDCs were thawed and cultured in Matrigel-coated flasks prepared with a working solution of 1X Ham's F-12 nutrient mix, without supplementation (Invitrogen, Waltham, MA, cat. 11765054), 100 U/mL penicillin-streptomycin (Invitrogen, cat. 15140122), and 2.5% Matrigel (Corning Inc., Corning, NY, cat. 354248) for the first three passages. The 947758-054-R-J2-PDC line was cultured in 6B/Colon 1A media, which includes advanced DMEM/F-12 (Thermo Fisher Scientific, cat. 12634028), 10 mM HEPES (Thermo Fisher Scientific, cat. 15630080), 1X GlutaMAX supplement (Thermo Fisher Scientific, cat. 35050061), 0.1 mg/mL primocin (InvivoGen, cat. ant-pm-2), 10% defined fetal bovine serum, heat inactivated (HyClone Laboratories Inc., cat. SH30070.03HI), 1.25 mM N-Acetyl-L-cysteine (Sigma-Aldrich, cat. A9165), 10 mM nicotinamide (Sigma-Aldrich, cat. N0636), 1X B-27 supplement (Thermo Fisher Scientific, cat. 17504044), 1X N-2 supplement (Thermo Fisher Scientific, cat. 17502048), and 10 microM Y-27632 dihydrochloride (Tocris Bioscience, cat. 1254). The 876862-298-R-J1-PDC was cultured in 6E media, which includes all 6B/Colon 1A media components plus 50% L-WRN conditioned media (ATCC, cat. CRL-3276), 50 ng/mL recombinant human EGF recombinant protein (hEGF; Thermo Fisher Scientific, cat. PHG0311), 10 ng/mL recombinant human fibroblast growth factor 10 (hGFG-10; PeproTech, cat. 100-26), 1 ng/mL recombinant human fibroblast growth factor 2 (hFGF-2; PeproTech, cat. 100-18B), and 1 µM prostaglandin E2 (PGE2; Tocris, cat. 2296). The 227483-062-R1-J1-PDC line was cultured in Panc media, containing all 6E components except hFGF-2, with the addition of 500 nM SB-431542 (Selleckchem, cat. S1067) and 10 nM gastrin (Tocris, cat. 3006). […]
# [1] = second compound 0.0316 µM, first compound 0.0316 µM
# [2] = second compound 0.0316 µM, first compound 0.1 µM
# [3] = second compound 0.0316 µM, first compound 0.316 µM
# [4] = second compound 0.0316 µM, first compound 1 µM
# [5] = second compound 0.0316 µM, first compound 3.16 µM
# [6] = second compound 0.0316 µM, first compound 10 µM
# [7] = second compound 0.1 µM, first compound 0.0316 µM
# [8] = second compound 0.1 µM, first compound 0.1 µM
# [9] = second compound 0.1 µM, first compound 0.316 µM
# [10] = second compound 0.1 µM, first compound 1 µM
# [11] = second compound 0.1 µM, first compound 3.16 µM
# [12] = second compound 0.1 µM, first compound 10 µM
# [13] = second compound 0.316 µM, first compound 0.0316 µM
# [14] = second compound 0.316 µM, first compound 0.1 µM
# [15] = second compound 0.316 µM, first compound 0.316 µM
# [16] = second compound 0.316 µM, first compound 1 µM
# [17] = second compound 0.316 µM, first compound 3.16 µM
# [18] = second compound 0.316 µM, first compound 10 µM
# [19] = second compound 1 µM, first compound 0.0316 µM
# [20] = second compound 1 µM, first compound 0.1 µM
# [21] = second compound 1 µM, first compound 0.316 µM
# [22] = second compound 1 µM, first compound 1 µM
# [23] = second compound 1 µM, first compound 3.16 µM
# [24] = second compound 1 µM, first compound 10 µM
# [25] = second compound 3.16 µM, first compound 0.0316 µM
# [26] = second compound 3.16 µM, first compound 0.1 µM
# [27] = second compound 3.16 µM, first compound 0.316 µM
# [28] = second compound 3.16 µM, first compound 1 µM
# [29] = second compound 3.16 µM, first compound 3.16 µM
# [30] = second compound 3.16 µM, first compound 10 µM
# [31] = second compound 10 µM, first compound 0.0316 µM
# [32] = second compound 10 µM, first compound 0.1 µM
# [33] = second compound 10 µM, first compound 0.316 µM
# [34] = second compound 10 µM, first compound 1 µM
# [35] = second compound 10 µM, first compound 3.16 µM
# [36] = second compound 10 µM, first compound 10 µM
# 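Further: spheroids exposed to compounds for seven days before readout.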
# 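Wherever viability, T/C is given: percent of DMSO vehicle control luminescence as 100% viability.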
smiles,measurement,setting,value
CCCS(=O)(=O)Nc1ccc(F)c(C(=O)c2c[nH]c3ncc(-c4ccc(Cl)cc4)cc23)c1F + CNC(=O)c1ccc(Nc2nc(OC3CCCC3)c3c(-c4ccc5nc(C)oc5c4)c[nH]c3n2)c(OC)c1,IC50,second compound 0.0316 µM,> 10 µM
same,IC50,second compound 0.1 µM,> 10 µM
same,IC50,second compound 0.316 µM,9.22 µM
same,IC50,second compound 1 µM,7.06 µM
same,IC50,second compound 3.16 µM,0.241 µM
same,IC50,second compound 10 µM,< 0.0316 µM
same,"viability, T/C",[1],87.8%
same,"viability, T/C",[2],94%
same,"viability, T/C",[3],96.5%
same,"viability, T/C",[4],101%
same,"viability, T/C",[5],105%
same,"viability, T/C",[6],66.2%
same,"viability, T/C",[7],102%
same,"viability, T/C",[8],101%
same,"viability, T/C",[9],107%
same,"viability, T/C",[10],108%
same,"viability, T/C",[11],114%
same,"viability, T/C",[12],56.2%
same,"viability, T/C",[13],78.2%
same,"viability, T/C",[14],93.2%
same,"viability, T/C",[15],96%
same,"viability, T/C",[16],118%
same,"viability, T/C",[17],126%
same,"viability, T/C",[18],46%
same,"viability, T/C",[19],64.7%
same,"viability, T/C",[20],80%
same,"viability, T/C",[21],84.1%
same,"viability, T/C",[22],85.7%
same,"viability, T/C",[23],85.8%
same,"viability, T/C",[24],36.9%
same,"viability, T/C",[25],53.1%
same,"viability, T/C",[26],52.6%
same,"viability, T/C",[27],49.6%
same,"viability, T/C",[28],36.1%
same,"viability, T/C",[29],28.1%
same,"viability, T/C",[30],24.7%
same,"viability, T/C",[31],39%
same,"viability, T/C",[32],40.2%
same,"viability, T/C",[33],45.1%
same,"viability, T/C",[34],35.5%
same,"viability, T/C",[35],33.5%
same,"viability, T/C",[36],24.3%
COc1ccc([C@@H](O)c2cc(-c3ncnc4cc(N5CCOCC5)ccc34)c(F)cc2Cl)nn1 + CNC(=O)c1ccc(Nc2nc(OC3CCCC3)c3c(-c4ccc5nc(C)oc5c4)c[nH]c3n2)c(OC)c1,IC50,second compound 0.0316 µM,> 10 µM
same,IC50,second compound 0.1 µM,> 10 µM
same,IC50,second compound 0.316 µM,> 10 µM
same,IC50,second compound 1 µM,0.75 µM
same,IC50,second compound 3.16 µM,< 0.0316 µM
same,IC50,second compound 10 µM,< 0.0316 µM
same,"viability, T/C",[1],94.6%
same,"viability, T/C",[2],85.9%
same,"viability, T/C",[3],108%
same,"viability, T/C",[4],94.5%
same,"viability, T/C",[5],73.1%
same,"viability, T/C",[6],59.8%
same,"viability, T/C",[7],98.6%
same,"viability, T/C",[8],86.8%
same,"viability, T/C",[9],76.7%
same,"viability, T/C",[10],75.5%
same,"viability, T/C",[11],58.5%
same,"viability, T/C",[12],53.5%
same,"viability, T/C",[13],86.2%
same,"viability, T/C",[14],83.1%
same,"viability, T/C",[15],72.1%
same,"viability, T/C",[16],56.5%
same,"viability, T/C",[17],63.5%
same,"viability, T/C",[18],53.7%
same,"viability, T/C",[19],68.1%
same,"viability, T/C",[20],64.3%
same,"viability, T/C",[21],62.8%
same,"viability, T/C",[22],42.5%
same,"viability, T/C",[23],48%
same,"viability, T/C",[24],46.7%
same,"viability, T/C",[25],42%
same,"viability, T/C",[26],41.5%
same,"viability, T/C",[27],42.1%
same,"viability, T/C",[28],45.7%
same,"viability, T/C",[29],48.3%
same,"viability, T/C",[30],26.2%
same,"viability, T/C",[31],36.1%
same,"viability, T/C",[32],38.2%
same,"viability, T/C",[33],31.9%
same,"viability, T/C",[34],39%
same,"viability, T/C",[35],38.6%
same,"viability, T/C",[36],27.9%
